In patent US5674881A, “Quaternary ammonium salts of aromatic amine compounds, their preparation and pharmaceutical compositions in which they are present” (Elf Sanofi, priority 1992, dated 1997):
Values belong to the compound of their own block, whether it stands above or below them.

Columns and labels:
[1] = biological target: T1, substance P receptors on rat cortex (Rattus norvegicus, UniProt P14600); test: antagonism of the binding of substance P to its receptor, rat cortex
T1 construct: in tests performed on rat cortex; from tissue; host or cells: rat cortex
Experimental: (§1) Thus the compounds according to the invention antagonize the binding of substance P to its receptor with a Ki of between 0.1 and 800 nM in tests performed on rat cortex and with a Ki of between 0.01 and 30 nM in tests performed on the lymphoblastic cell line IM9.

substance P = substance P antagonism
neurokinin receptors = test: affinity for the neurokinin receptors; type: binding
[2] = biological target: T2, substance P receptors on human cells of the IM9 line (Homo sapiens, UniProt P25103); test: antagonism of the binding of substance P to its receptor, lymphoblastic cell line IM9
T2 construct: in tests performed on the lymphoblastic cell line IM9; endogenous in cells; host or cells: IM9 (human lymphoblastic cell line)
Experimental: as §1

NK1 receptor = settings: agonist; D. Regoli 1988 and 1989; cited from earlier work
[3] = biological target: substance P receptors (bovine receptor); settings: 3H-SP binding on bovine caudal membrane, Snider et al. 1991; cited from earlier work
[4] = test system: substance P receptors, U373 MG cells; settings: substance P binding, Gitter et al. 1991; cited from earlier work
[5] = biological target: substance P receptors (rat receptor); settings: 3H-SP binding on rat cortical membranes, Snider et al. 1991; cited from earlier work
[6] = test system: substance P receptors, IM9 cells; settings: substance P binding, Gitter et al. 1991; cited from earlier work

T1 sequence (P14600 whole entry): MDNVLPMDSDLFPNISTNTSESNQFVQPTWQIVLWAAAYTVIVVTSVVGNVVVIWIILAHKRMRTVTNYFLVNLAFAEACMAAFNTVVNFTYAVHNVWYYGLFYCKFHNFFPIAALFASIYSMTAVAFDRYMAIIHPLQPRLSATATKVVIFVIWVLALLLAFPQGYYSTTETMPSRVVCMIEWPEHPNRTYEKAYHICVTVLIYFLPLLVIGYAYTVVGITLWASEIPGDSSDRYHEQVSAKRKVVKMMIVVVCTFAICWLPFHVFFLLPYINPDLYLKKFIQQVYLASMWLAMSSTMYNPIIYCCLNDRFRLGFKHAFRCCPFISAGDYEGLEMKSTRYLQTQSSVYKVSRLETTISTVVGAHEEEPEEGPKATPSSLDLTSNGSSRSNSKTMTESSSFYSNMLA
T2 sequence (P25103 whole entry): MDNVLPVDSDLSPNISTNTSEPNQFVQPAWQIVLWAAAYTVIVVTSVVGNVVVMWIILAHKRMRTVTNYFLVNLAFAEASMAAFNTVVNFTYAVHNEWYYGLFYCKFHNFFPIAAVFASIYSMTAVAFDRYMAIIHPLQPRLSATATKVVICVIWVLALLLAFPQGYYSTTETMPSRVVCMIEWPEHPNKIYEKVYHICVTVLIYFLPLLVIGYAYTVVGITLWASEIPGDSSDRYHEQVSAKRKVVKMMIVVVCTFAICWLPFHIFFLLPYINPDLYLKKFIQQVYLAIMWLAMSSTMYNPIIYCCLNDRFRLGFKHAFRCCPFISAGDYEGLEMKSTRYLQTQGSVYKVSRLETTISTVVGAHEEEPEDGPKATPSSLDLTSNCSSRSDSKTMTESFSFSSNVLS

- Ki [1]: 0.3 to 0.6 nM
- affinity for the neurokinin receptors (neurokinin receptors): very high affinity
- Ki [2]: 0.3 to 0.6 nM
Compound: CC(C)Oc1cccc(CC(=O)N(C)CC(CCN2CCC(c3ccccc3)CC2)c2ccc(Cl)c(Cl)c2)c1 (stereo not drawn) [(I'b), N-Methyl-N-[4-(4-phenylpiperidin-1-yl)-2-(3,4-dichlorophenyl)butyl]-3-isopropoxyphenylacetamide]
- substance P antagonism (substance P): powerful substance P antagonists

Compound: [Sar^9, Met-(O2)^11 ]-SP
- selectivity for the NK1 receptor (NK1 receptor): selective

Compound: COc1ccccc1CN[C@H]1C2CCN(CC2)[C@H]1C(c1ccccc1)c1ccccc1 [CP 96,345]
- Ki [3]: 3 nM
- Ki [4]: 0.4 nM
- Ki [5]: 240 nM
- Ki [6]: 0.4 nM
